# According to US7288760B2, “Conformational real-time atmospheric and environmental characterization sampling apparatus and method” (Battelle Memorial Institute, priority 2005, dated 2007):
# Type: in vivo
# Details: dermal delivery via glass cup bulb, approximately 0.0007 g toluene, ~253 g rat, 10-L glass sampling chamber, quadrupole MS m/z=92, throughput 195 mL/min
# Description: FIG. 5a illustrates a system 200 for real-time monitoring and/or analysis of analytes released to a sampling environment 30 in conjunction with animal exposure studies, according to another embodiment of the invention. In Example 4 below, a live animal (e.g., rat) 32 placed in a sampling environment 30 is dosed or treated with a chemical or a drug delivered, e.g., via a dermal cup bulb 34 in conjunction with a precision syringe 36 or other delivery means, including but not limited to, dermal patch, injection, or the like. Environment 30 is monitored in real-time via coupling with manifold 20 at the breathing (clearance) rate of the animal until desired target analytes, metabolites, and/or chemical indicators of interest are detected or quantified in the mass-selective detector or instrument comprising system 10. […]
# A custom made ˜3-cc glass cup bulb 34 including a septum (not shown) made of silicon sealant (Dow Corning, Baltimore, Md.) was affixed to the dermis of an anesthetized ˜253 g rat 32 using a veterinary bonding compound (e.g., vet bond®, 3M, St. Paul, Minn.) and allowed to affix for ˜12 to 14 hours. […] Alternatively, breathing rate can be determined using a breathing plethysmograph (e.g., a double chamber plethysmograph, Buxco Electronics, Inc., Wilmington, N.C.). […]
smiles,measurement,value
Cc1ccccc1 [toluene],Time from exposure to detection of the toluene analyte from the respired breath of animal,about 30 minutes
